Earlier results on two compounds are cited in US20040054006A1 (priority 1999, published 2004).

For series [1] the following is noted: fed to mice, rats and chicks.
For series [2] the following is noted: feeding animals cyclocreatine, e.g. 1% dietary.
For series [3] the following is noted: rats, dietary 1% cyclocreatine.
For series [4] the following is noted: newly hatched chicks, diet containing 1% cyclocreatine.
The conditions of series [5]: mice, up to 1% of diet for 2 weeks or for over 4 weeks.
Another series relates to creatine kinase. The following applies: forward reaction, both in vitro and in vivo.
For series [6] the following is noted: 1% dietary cyclocreatine.
The conditions of series [7]: intravenous injection, up to 8 grams/day, patients with cardiac diseases.

With `NC1=NCCN1CC(=O)O` [cyclocreatine, 1-carboxymethyl-2-iminoimidazolidine], the tolerability entry in series [1] was “well-tolerated”. In series [2], the “accumulation in different organs” value is reported as “accumulation of cyclocreatine in different organs in mM concentrations”. In addition, in series [3], the tissue uptake entry is “taken up by muscle, heart and brain”. Besides, the “growth versus control chicks” value in series [4] is “grew more slowly than control chicks”. The mortality entry in series [4] (in the presence of antibiotics) is “without significant mortality”. Further, the gross adverse effects entry in series [5] is “without gross adverse effects”. Moreover, the “phosphorylation by creatine kinase” value in the series with creatine kinase is “phosphorylated efficiently”. The antiviral activity entry in series [6] is “antiviral activity of cyclocreatine is observed”.

As to “N-phosphoryl creatine [Creatine phosphate]”, the adverse side effects entry in series [7] was “no adverse side effects”.
